Experimental data reported in US6355799B1, “Substituted benzene compounds, process for their preparation, and herbicidal and defoliant compositions containing them” (ISK Americas Incorporated, priority 1997, dated 2002).

How the values were obtained:
Format in all cases: in vivo
[1] = system: redroot pigweed (Amaranthus retroflexus, AMARE); assay: Pre-emerge test, greenhouse herbicide activity screening; conditions: rated 14 days after application, 0 = no damage, 100 = complete death
Outline: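 Rating: 0–100 visual injury, 14 DAA. Application: acetone, 187 l/ha, 15–1000 g ai/ha, flat-fan track sprayer with nozzle 40–45 cm above soil or canopy. Post-emerge runs used 0.25% v/v surfactant on 2–3 leaf plants.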

[2] = system: barnyardgrass (Echinochloa crus-galli, ECHCG); assay: as above; conditions: rated 14 days after application, 0 = no damage, 100 = complete death
Outline: (§1)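 Fourteen days after spraying, crop and weed injury was graded visually from 0, no effect, to 100, every plant dead. Test substances were dissolved in acetone and applied at 15–1000 g ai/ha with a flat-fan nozzle. Application was either pre-emergence, one day after sowing, or post-emergence at the 2–3 leaf stage.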

[3] = system: common ragweed (Ambrosia artemisizfolia L., AMBEL); assay: as above; conditions: rated 14 days after application, 0 = no damage, 100 = complete death
Outline: as §1

[4] = system: green foxtail (Setaria viridis, SETVI); assay: as above; conditions: rated 14 days after application, 0 = no damage, 100 = complete death
Outline: as §1

[5] = system: ivyleaf morningglory (Ipomoea hederacea, IPOHE); assay: as above; conditions: rated 14 days after application, 0 = no damage, 100 = complete death
Outline: as §1

[6] = system: johnsongrass (Sorghum halepense, SORHA); assay: as above; conditions: rated 14 days after application, 0 = no damage, 100 = complete death
Outline: as §1

[7] = system: lambsquarters (Chenopodium album, CHEAL); assay: as above; conditions: rated 14 days after application, 0 = no damage, 100 = complete death
Outline: as §1

[8] = system: large crabgrass (Digitaria sanguinalis, DIGSA); assay: as above; conditions: rated 14 days after application, 0 = no damage, 100 = complete death
Outline: as §1

[9] = system: sicklepod (Cassia obtusifolia, CASOB); assay: as above; conditions: rated 14 days after application, 0 = no damage, 100 = complete death
Outline: as §1

[10] = system: velvetleaf (Abutilon theophrasti, ABUTH); assay: as above; conditions: rated 14 days after application, 0 = no damage, 100 = complete death
Outline: as §1

[11] = system: field corn (Zea mays L., var. Dekalb 535, CORN); assay: Pre-emerge test, crop safety; conditions: rated 14 days after application, 0 = no damage, 100 = complete death
Outline: (§2)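 Herbicidal damage is scored 0 (none) to 100 (complete plant death) two weeks after a simulated field spray. Rates span 15–1000 g ai/ha, delivered in acetone at 187 l/ha. For post-emergence treatments, plants have 2–3 leaves and the spray carries 0.25% v/v non-ionic surfactant.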

[12] = system: upland rice (Oryza sp., var. Tebonnet, RICE); assay: Pre-emerge test, crop safety; conditions: rated 14 days after application, 0 = no damage, 100 = complete death
Outline: as §2

[13] = system: barnyardgrass (Echinochloa crus-galli, ECHCG); assay: Post-emerge test, greenhouse herbicide activity screening; conditions: post-emerge, 14 days after application, rating scale 0-100
Outline: (§3)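 Each test used a mechanized track sprayer delivering 187 l/ha of acetone solution at 15–1000 g ai/ha. Post-emerge foliage at 2–3 leaves was treated with added 0.25% v/v non-ionic surfactant and bottom-watered only. Injury was assessed on day 14, where 100 means total kill.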

[14] = system: common ragweed (Ambrosia artemisizfolia L., AMBEL); assay: as above; conditions: post-emerge, 14 days after application, rating scale 0-100
Outline: as §3

[15] = system: green foxtail (Setaria viridis, SETVI); assay: as above; conditions: post-emerge, 14 days after application, rating scale 0-100
Outline: as §3

[16] = system: ivyleaf morningglory (Ipomoea hederacea, IPOHE); assay: as above; conditions: post-emerge, 14 days after application, rating scale 0-100
Outline: as §3

[17] = system: johnsongrass (Sorghum halepense, SORHA); assay: as above; conditions: post-emerge, 14 days after application, rating scale 0-100
Outline: as §3

[18] = system: lambsquarters (Chenopodium album, CHEAL); assay: as above; conditions: post-emerge, 14 days after application, rating scale 0-100
Outline: as §3

[19] = system: large crabgrass (Digitaria sanguinalis, DIGSA); assay: as above; conditions: post-emerge, 14 days after application, rating scale 0-100
Outline: as §3

[20] = system: redroot pigweed (Amaranthus retroflexus, AMARE); assay: as above; conditions: post-emerge, 14 days after application, rating scale 0-100
Outline: as §3

[21] = system: sicklepod (Cassia obtusifolia, CASOB); assay: as above; conditions: post-emerge, 14 days after application, rating scale 0-100
Outline: as §3

[22] = system: velvetleaf (Abutilon theophrasti, ABUTH); assay: as above; conditions: post-emerge, 14 days after application, rating scale 0-100
Outline: as §3

[23] = system: field corn (Zea mays L., var. Dekalb 535, CORN); assay: Post-emerge test, crop safety; conditions: post-emerge, 14 days after application, rating scale 0-100
Outline: as §1

[24] = system: upland rice (Oryza sp., var. Tebonnet, RICE); assay: Post-emerge test, crop safety; conditions: post-emerge, 14 days after application, rating scale 0-100
Outline: as §1

## COc1c(Cl)cc(F)c(-n2c(=O)cc(C(F)(F)F)n(C)c2=O)c1NC(=O)c1cccc(F)c1F [2-41]
[1]; 63 g ai/ha
  Pre-emerge Herbicidal Activity, phytotoxicity rating (0-100), AMARE: 100
[1]; 250 g ai/ha
  Pre-emerge Herbicidal Activity, phytotoxicity rating (0-100), AMARE: 100
[2]; 63 g ai/ha
  Pre-emerge Herbicidal Activity, phytotoxicity rating (0-100), ECHCG: 50
[2]; 250 g ai/ha
  Pre-emerge Herbicidal Activity, phytotoxicity rating (0-100), ECHCG: 100
[3]; 63 g ai/ha
  Pre-emerge Herbicidal Activity, phytotoxicity rating (0-100), AMBEL: 100
[3]; 250 g ai/ha
  Pre-emerge Herbicidal Activity, phytotoxicity rating (0-100), AMBEL: 100
[4]; 63 g ai/ha
  Pre-emerge Herbicidal Activity, phytotoxicity rating (0-100), SETVI: 95
[4]; 250 g ai/ha
  Pre-emerge Herbicidal Activity, phytotoxicity rating (0-100), SETVI: 100
[5]; 63 g ai/ha
  Pre-emerge Herbicidal Activity, phytotoxicity rating (0-100), IPOHE: 90
[5]; 250 g ai/ha
  Pre-emerge Herbicidal Activity, phytotoxicity rating (0-100), IPOHE: 100
[6]; 63 g ai/ha
  Pre-emerge Herbicidal Activity, phytotoxicity rating (0-100), SORHA: 30
[6]; 250 g ai/ha
  Pre-emerge Herbicidal Activity, phytotoxicity rating (0-100), SORHA: 100
[7]; 63 g ai/ha
  Pre-emerge Herbicidal Activity, phytotoxicity rating (0-100), CHEAL: 100
[7]; 250 g ai/ha
  Pre-emerge Herbicidal Activity, phytotoxicity rating (0-100), CHEAL: 100
[8]; 63 g ai/ha
  Pre-emerge Herbicidal Activity, phytotoxicity rating (0-100), DIGSA: 70
[8]; 250 g ai/ha
  Pre-emerge Herbicidal Activity, phytotoxicity rating (0-100), DIGSA: 100
[9]; 63 g ai/ha
  Pre-emerge Herbicidal Activity, phytotoxicity rating (0-100), CASOB: 80
[9]; 250 g ai/ha
  Pre-emerge Herbicidal Activity, phytotoxicity rating (0-100), CASOB: 100
[10]; 63 g ai/ha
  Pre-emerge Herbicidal Activity, phytotoxicity rating (0-100), ABUTH: 100
[10]; 250 g ai/ha
  Pre-emerge Herbicidal Activity, phytotoxicity rating (0-100), ABUTH: 100
[11]; 63 g ai/ha
  Pre-emerge phytotoxicity rating (0-100), crop damage, CORN: 35
[11]; 250 g ai/ha
  Pre-emerge phytotoxicity rating (0-100), crop damage, CORN: 95
[12]; 63 g ai/ha
  Pre-emerge phytotoxicity rating (0-100), crop damage, RICE: 50
[12]; 250 g ai/ha
  Pre-emerge phytotoxicity rating (0-100), crop damage, RICE: 90
[13]; 63 g ai/ha
  phytotoxicity rating ECHCG: 0
[13]; 250 g ai/ha
  phytotoxicity rating ECHCG: 30
[14]; 63 g ai/ha
  phytotoxicity rating AMBEL: 50
[14]; 250 g ai/ha
  phytotoxicity rating AMBEL: 95
[15]; 63 g ai/ha
  phytotoxicity rating SETVI: 20
[15]; 250 g ai/ha
  phytotoxicity rating SETVI: 30
[16]; 63 g ai/ha
  phytotoxicity rating IPOHE: 100
[16]; 250 g ai/ha
  phytotoxicity rating IPOHE: 100
[17]; 63 g ai/ha
  phytotoxicity rating SORHA: 0
[17]; 250 g ai/ha
  phytotoxicity rating SORHA: 70
[18]; 63 g ai/ha
  phytotoxicity rating CHEAL: 95
[18]; 250 g ai/ha
  phytotoxicity rating CHEAL: 100
[19]; 63 g ai/ha
  phytotoxicity rating DIGSA: 0
[19]; 250 g ai/ha
  phytotoxicity rating DIGSA: 20
[20]; 63 g ai/ha
  phytotoxicity rating AMARE: 95
[20]; 250 g ai/ha
  phytotoxicity rating AMARE: 100
[21]; 63 g ai/ha
  phytotoxicity rating CASOB: 60
[21]; 250 g ai/ha
  phytotoxicity rating CASOB: 95
[22]; 63 g ai/ha
  phytotoxicity rating ABUTH: 100
[22]; 250 g ai/ha
  phytotoxicity rating ABUTH: 100
[23]; 63 g ai/ha
  phytotoxicity rating CORN: 15
[23]; 250 g ai/ha
  phytotoxicity rating CORN: 80
[24]; 63 g ai/ha
  phytotoxicity rating RICE: 10
[24]; 250 g ai/ha
  phytotoxicity rating RICE: 70
